From patent publication US10093678B2, “Azaspiro derivatives as TRPM8 antagonists” (RaQualia Pharma Inc., priority 2014, dated 2018)

Molecular target: T1, human TRPM8 (Homo sapiens, UniProt Q7Z2W7)
T1 construct: expressed in transfected cells; host or cells: HEK293
Experiment: Menthol-induced Ca2+ influx in HEK293 cells stably expressing human TRPM8
Assay type: cell-based
Conditions: 30 microM menthol-induced Ca2+ influx, read-out: IC50 against TRPM8
Outline: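 IC50 values were fitted from 11-point dose-response data averaged over duplicate wells. Compound was added for 5 min to Fluo4-loaded HEK293 cells carrying stable human TRPM8, in HBSS/HEPES pH 7.4 with probenecid. Intracellular Ca2+ change after 30 microM menthol addition was then imaged on FDSS.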

T1 sequence (Q7Z2W7 whole entry): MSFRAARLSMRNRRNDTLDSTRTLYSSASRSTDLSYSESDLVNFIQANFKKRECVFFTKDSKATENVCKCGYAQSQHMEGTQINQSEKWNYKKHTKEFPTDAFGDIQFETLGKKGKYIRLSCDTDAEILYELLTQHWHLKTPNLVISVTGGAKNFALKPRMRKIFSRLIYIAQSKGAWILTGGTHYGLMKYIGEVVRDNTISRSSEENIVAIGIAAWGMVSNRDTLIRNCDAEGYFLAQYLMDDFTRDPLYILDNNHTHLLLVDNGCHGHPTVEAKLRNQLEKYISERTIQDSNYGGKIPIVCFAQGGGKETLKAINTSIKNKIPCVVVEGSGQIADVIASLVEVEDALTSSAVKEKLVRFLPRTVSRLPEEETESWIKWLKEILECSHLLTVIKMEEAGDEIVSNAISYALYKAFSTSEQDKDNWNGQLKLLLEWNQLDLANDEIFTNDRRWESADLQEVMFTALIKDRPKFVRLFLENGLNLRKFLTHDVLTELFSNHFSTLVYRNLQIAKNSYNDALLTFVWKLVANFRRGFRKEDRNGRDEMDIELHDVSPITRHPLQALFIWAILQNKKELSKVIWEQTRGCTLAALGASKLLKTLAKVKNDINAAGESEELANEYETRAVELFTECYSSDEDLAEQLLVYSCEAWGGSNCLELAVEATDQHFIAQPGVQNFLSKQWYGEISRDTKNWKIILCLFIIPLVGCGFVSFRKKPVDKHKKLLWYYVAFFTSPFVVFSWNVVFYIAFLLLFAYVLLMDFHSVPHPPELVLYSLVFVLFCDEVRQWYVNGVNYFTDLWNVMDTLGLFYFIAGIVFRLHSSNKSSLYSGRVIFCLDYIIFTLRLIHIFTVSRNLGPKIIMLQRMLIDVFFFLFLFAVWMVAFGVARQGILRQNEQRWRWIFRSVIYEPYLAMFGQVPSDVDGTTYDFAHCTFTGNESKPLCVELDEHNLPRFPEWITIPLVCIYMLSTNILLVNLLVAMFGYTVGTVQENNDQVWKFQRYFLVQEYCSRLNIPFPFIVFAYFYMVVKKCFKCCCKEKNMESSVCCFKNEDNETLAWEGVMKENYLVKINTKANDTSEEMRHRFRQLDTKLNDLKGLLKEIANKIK

| SMILES | IC50 [nM] |
| --- | --- |
| Cc1cc(C(=O)CN2C(=O)NC3(CCC(F)(F)CC3)C2=O)c(C)n1-c1ccc2ccccc2n1 [Example 3-20] | < 500 |
| Cn1c(C(=O)CN2C(=O)NC3(CCC(F)(F)CC3)C2=O)ccc1-c1ccccc1CO [Example 16-30] | < 500 |
| Cc1cc(C(=O)CN2C(=O)NC3(CCC(F)(F)CC3)C2=O)c(C)n1-c1ccccc1 [Example 3-4] | < 100 |
| Cc1cc(C(=O)CN2C(=O)NC3(CCC(F)(F)CC3)C2=O)n(C)c1-c1cncc(C(N)=O)c1 [Example 16-33] | < 500 |
| Cc1cc(C(=O)CN2C(=O)NC3(CCC(F)(F)CC3)C2=O)sc1-c1ccccc1C#N [Example 14-8] | < 100 |
| O=C(CN1C(=O)NC2(CCC(F)(F)CC2)C1=O)c1ccc(N2CCOc3ccccc32)nc1 [Example 19-7] | < 100 |
| CCc1ccccc1-c1ccc(C(=O)CN2C(=O)NC3(CCC(F)(F)CC3)C2=O)cn1 [Example 9-20] | < 100 |
| O=C(CN1C(=O)NC2(CCCCC2)C1=O)c1ccc(-c2ccccc2F)nc1 [Example 9-4] | < 100 |
| Cc1cccc(-n2c(C)cc(C(=O)CN3C(=O)NC4(CCC(C(F)(F)F)CC4)C3=O)c2C)n1 (stereo not drawn) [Example 3-15] | < 100 |
| COC(=O)c1cccc(-n2c(C)cc(C(=O)CN3C(=O)NC4(CCCCC4)C3=O)c2C)c1 [Example 3-8] | < 100 |
| Cc1cc(C(=O)CN2C(=O)NC3(CCC(F)(F)CC3)C2=O)n(C)c1-c1ccccc1CO [Example 16-8] | < 100 |
| Cc1cc(C(=O)CN2C(=O)NC3(CCC(F)(F)CC3)C2=O)ccc1-c1cccnc1 [Example 13-7] | < 100 |
| O=C(CN1C(=O)NC2(CCCCC2)C1=O)c1ccc(-c2ccccc2C(F)(F)F)nc1 [Example 9-6] | < 100 |
| N#Cc1ccncc1-c1ccc(C(=O)CN2C(=O)NC3(CCC(F)(F)CC3)C2=O)cc1 [Example 6-16] | < 100 |
| Cc1c(C(=O)CN2C(=O)NC3(CCC(F)(F)CC3)C2=O)nn(C)c1-c1cccnc1 [Example 4-7] | < 500 |
| O=C(CN1C(=O)NC2(CCC(F)(F)CC2)C1=O)c1ccc(N2CCCc3ccccc32)nc1 [Example 19-11] | < 100 |
| O=C(CN1C(=O)NC2(CCC(F)(F)CC2)C1=O)c1ccc(-c2cccnc2OCCO)cc1 [Example 6-17] | < 100 |
| Cc1ccc2nc(CN3CCCCC3)n(-c3ccc(C(=O)CN4C(=O)NC5(CCC(F)(F)CC5)C4=O)cc3)c2n1 [Example 25-3] | < 500 |
| O=C(CN1CC2(CCC(F)(F)CC2)OC1=O)c1ccc(-n2cnc3cccnc32)cc1 [Example 22-1] | < 100 |
| O=C(CN1C(=O)NC2(CCC(F)(F)CC2)C1=O)c1ccc(-n2c(=O)oc3ccccc32)cc1 [Example 19-30] | < 10 |
| O=C(CN1C(=O)NC2(CCC(F)(F)CC2)C1=O)c1ccc(-c2cccc3[nH]ccc23)nc1 [Example 9-10] | < 10 |
| N#Cc1ncccc1-c1ccc(C(=O)CN2C(=O)NC3(CCCCC3)C2=O)cc1 [Example 7-8] | < 100 |
| Cc1ccncc1-c1ccc(C(=O)CN2C(=O)NC3(CCC(F)(F)CC3)C2=O)cc1Cl [Example 13-23] | < 100 |
| O=C(CN1C(=O)NC2(CCC(F)(F)CC2)C1=O)c1ccc(-c2cccn3ccnc23)cc1 [Example 6-38] | < 100 |
| Cc1ccccc1-c1sc(C(=O)CN2C(=O)NC3(CCC(F)(F)CC3)C2=O)cc1C [Example 14-11] | < 100 |
| Cc1cc(-n2c(C)cc(C(=O)CN3C(=O)OC4(CCC(F)(F)CC4)C3=O)c2C)no1 [Example 1-2] | < 100 |
| Cc1nccnc1-c1ccc(C(=O)CN2C(=O)NC3(CCC(F)(F)CC3)C2=O)cc1F [Example 8-3] | < 100 |

| SMILES | IC50 [nM] |
| --- | --- |
| Cc1cc(C(=O)CN2C(=O)NC3(CCC(F)(F)CC3)C2=O)ccc1-c1cc(F)cc(F)c1 [Example 13-16] | < 100 |
| Cc1cc(C(=O)CN2C(=O)NC3(CCC(F)(F)CC3)C2=O)c(C)n1-c1noc2ccccc12 [Example 3-18] | < 100 |
| O=C(CN1C(=O)NC2(CCCCC2)C1=O)c1ccc(-c2ncccc2CO)cc1 [Example 7-7] | < 100 |
| Cc1cc(C(=O)CN2C(=O)NC3(CCC(F)(F)CC3)C2=O)sc1-c1ccccc1CO [Example 14-4] | < 100 |
| Cc1cc(C(=O)CN2C(=O)NC3(CCC(F)(F)CC3)C2=O)ccc1-c1cccc2c1CNC2=O [Example 13-10] | < 100 |
| O=C(CN1C(=O)NC2(CCC(F)(F)CC2)C1=O)c1ccc(-n2ccc3ccncc32)nc1 [Example 19-8] | < 100 |
| Cc1ccccc1-n1ncc(C(=O)CN2C(=O)NC3(CCC(F)(F)CC3)C2=O)c1C [Example 4-12] | < 500 |
| Cc1cc(-n2c(C)cc(C(=O)CN3C(=O)OC4(CCC(C(F)(F)F)CC4)C3=O)c2C)no1 (stereo not drawn) [Example 1-5] | < 500 |
| O=C(CN1C(=O)NC2(CCC(F)(F)CC2)C1=O)c1cnc(-n2cnc3ccccc32)cn1 [Example 19-24] | < 100 |
| Cc1cc(-n2c(C)cc(C(=O)CN3C(=O)NC4(CCC(F)(F)CC4)C3=O)c2C)no1 [Example 1-1, 3-(2-(2,5-dimethyl-1-(5-methylisoxazol-3-yl)-1H-pyrrol-3-yl)-2-oxoethyl)-8,8-difluoro-1,3-diazaspiro[4.5]decane-2,4-dione] | < 100 |
| Cc1ccncc1-c1ccc(C(=O)CN2CC3(CCCCC3)OC2=O)cc1 [Example 13-51] | < 100 |
| Cc1cc(C(=O)CN2C(=O)NC3(CCC(F)(F)CC3)C2=O)sc1-c1cncc(C#N)c1 [Example 14-13] | < 100 |
| O=C(CN1C(=O)NC2(CCC(F)(F)CC2)C1=O)c1ccc(-n2c(C(F)F)nc3cccnc32)cc1 [Example 24-1] | < 100 |
| O=C(CN1C(=O)NC2(CCC(F)(F)CC2)C1=O)c1ccc(-c2cnccc2C(F)(F)F)cc1 [Example 6-41] | < 100 |
| O=C(CN1C(=O)NC2(CCC(F)(F)CC2)C1=O)c1cc(F)c(-c2ccccc2CO)c(F)c1 [Example 13-32] | < 100 |
| O=C(CN1C(=O)NC2(CCC(F)(F)CC2)C1=O)c1ccc(-c2cccc3cccnc23)nc1 [Example 9-13] | < 100 |
| Cc1ccnnc1-c1ccc(C(=O)CN2C(=O)OC3(CCC(F)(F)CC3)C2=O)cc1 [Example 7-21] | < 100 |
| O=C(CN1CC2(CCC(F)(F)CC2)OC1=O)c1ccc(-c2ccccc2CO)cc1 [Example 13-55] | < 100 |
| CN(c1ccccn1)c1ccc(C(=O)CN2C(=O)NC3(CCC(F)(F)CC3)C2=O)cn1 [Example 19-6] | < 100 |
| O=C(CN1C(=O)NC2(CCC(F)(F)CC2)C1=O)c1ccc(-c2cnn3cccnc23)cc1 [Example 6-68] | < 100 |
| O=C(CN1C(=O)NC2(CCC(F)(F)CC2)C1=O)c1ccc(Sc2ccccc2)nc1 [Example 20-9] | < 500 |
| Cc1nccnc1-c1ccc(C(=O)CN2CC3(CCC(F)(F)CC3)OC2=O)cc1 [Example 7-19] | < 500 |
| O=C(CN1C(=O)NC2(CCC(F)(F)CC2)C1=O)c1ccc(-c2ccccn2)cc1 [Example 13-49] | < 100 |
| O=C(CN1C(=O)NC2(CCC(F)(F)CC2)C1=O)c1ccc(-c2cccc3ncncc23)cc1 [Example 6-45] | < 100 |
| Cc1c(N)cncc1-c1ccc(C(=O)CN2C(=O)NC3(CCC(F)(F)CC3)C2=O)cc1 [Example 6-76] | < 100 |
| Cc1cc(C(=O)CN2C(=O)NC3(CCC(F)(F)CC3)C2=O)n(C)c1-c1cc(F)cc(F)c1 [Example 16-9] | < 100 |
| Cc1ccc2ncn(-c3ccc(C(=O)CN4C(=O)NC5(CCC(F)(F)CC5)C4=O)cc3)c2n1 [Example 26-2] | < 100 |
